The text below walks through data of patent publication US9902696B2, “1,4-substituted piperidine derivatives” (Cephalon, Inc., priority 2015, dated 2018).

Where two headings read alike, the source gives them in different places.

The target of series [1] is T1, recombinant human baculovirus-expressed GST-tagged FASN (Homo sapiens, UniProt P49327).
T1 construct: GST
Put plainly: FASN enzyme activity assay, fluorescence-based detection of CoA with CPM. As to conditions: 5 nM FASN, 150 μM NADPH, 10 μM acetyl-CoA, 25 μM malonyl-CoA, 90 minutes incubation. The series is classed as biochemical. Put shortly:
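Human GST-tagged FASN, baculovirus-expressed (5 nM), in 50 mM HEPES pH 7.5 with 150 μM NADPH, 10 μM acetyl-CoA, 25 μM malonyl-CoA, 0.5% DMSO; malonyl-CoA-started, 90 min. Released CoA detected with CPM (50 μM dilution), 30 min, fluorescence ex 390/em 530. IC50 from variable-slope sigmoidal fit of % inhibition versus log concentration.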

Where [2] appears, read: read-out: IC50 data for Additional Compounds of Formulae I-V(a): Activity.
The mark [3] stands for this setting: read-out: IC50 data for Compounds of Formulae I-V/V(a): Activity.

T1 sequence (P49327 whole entry): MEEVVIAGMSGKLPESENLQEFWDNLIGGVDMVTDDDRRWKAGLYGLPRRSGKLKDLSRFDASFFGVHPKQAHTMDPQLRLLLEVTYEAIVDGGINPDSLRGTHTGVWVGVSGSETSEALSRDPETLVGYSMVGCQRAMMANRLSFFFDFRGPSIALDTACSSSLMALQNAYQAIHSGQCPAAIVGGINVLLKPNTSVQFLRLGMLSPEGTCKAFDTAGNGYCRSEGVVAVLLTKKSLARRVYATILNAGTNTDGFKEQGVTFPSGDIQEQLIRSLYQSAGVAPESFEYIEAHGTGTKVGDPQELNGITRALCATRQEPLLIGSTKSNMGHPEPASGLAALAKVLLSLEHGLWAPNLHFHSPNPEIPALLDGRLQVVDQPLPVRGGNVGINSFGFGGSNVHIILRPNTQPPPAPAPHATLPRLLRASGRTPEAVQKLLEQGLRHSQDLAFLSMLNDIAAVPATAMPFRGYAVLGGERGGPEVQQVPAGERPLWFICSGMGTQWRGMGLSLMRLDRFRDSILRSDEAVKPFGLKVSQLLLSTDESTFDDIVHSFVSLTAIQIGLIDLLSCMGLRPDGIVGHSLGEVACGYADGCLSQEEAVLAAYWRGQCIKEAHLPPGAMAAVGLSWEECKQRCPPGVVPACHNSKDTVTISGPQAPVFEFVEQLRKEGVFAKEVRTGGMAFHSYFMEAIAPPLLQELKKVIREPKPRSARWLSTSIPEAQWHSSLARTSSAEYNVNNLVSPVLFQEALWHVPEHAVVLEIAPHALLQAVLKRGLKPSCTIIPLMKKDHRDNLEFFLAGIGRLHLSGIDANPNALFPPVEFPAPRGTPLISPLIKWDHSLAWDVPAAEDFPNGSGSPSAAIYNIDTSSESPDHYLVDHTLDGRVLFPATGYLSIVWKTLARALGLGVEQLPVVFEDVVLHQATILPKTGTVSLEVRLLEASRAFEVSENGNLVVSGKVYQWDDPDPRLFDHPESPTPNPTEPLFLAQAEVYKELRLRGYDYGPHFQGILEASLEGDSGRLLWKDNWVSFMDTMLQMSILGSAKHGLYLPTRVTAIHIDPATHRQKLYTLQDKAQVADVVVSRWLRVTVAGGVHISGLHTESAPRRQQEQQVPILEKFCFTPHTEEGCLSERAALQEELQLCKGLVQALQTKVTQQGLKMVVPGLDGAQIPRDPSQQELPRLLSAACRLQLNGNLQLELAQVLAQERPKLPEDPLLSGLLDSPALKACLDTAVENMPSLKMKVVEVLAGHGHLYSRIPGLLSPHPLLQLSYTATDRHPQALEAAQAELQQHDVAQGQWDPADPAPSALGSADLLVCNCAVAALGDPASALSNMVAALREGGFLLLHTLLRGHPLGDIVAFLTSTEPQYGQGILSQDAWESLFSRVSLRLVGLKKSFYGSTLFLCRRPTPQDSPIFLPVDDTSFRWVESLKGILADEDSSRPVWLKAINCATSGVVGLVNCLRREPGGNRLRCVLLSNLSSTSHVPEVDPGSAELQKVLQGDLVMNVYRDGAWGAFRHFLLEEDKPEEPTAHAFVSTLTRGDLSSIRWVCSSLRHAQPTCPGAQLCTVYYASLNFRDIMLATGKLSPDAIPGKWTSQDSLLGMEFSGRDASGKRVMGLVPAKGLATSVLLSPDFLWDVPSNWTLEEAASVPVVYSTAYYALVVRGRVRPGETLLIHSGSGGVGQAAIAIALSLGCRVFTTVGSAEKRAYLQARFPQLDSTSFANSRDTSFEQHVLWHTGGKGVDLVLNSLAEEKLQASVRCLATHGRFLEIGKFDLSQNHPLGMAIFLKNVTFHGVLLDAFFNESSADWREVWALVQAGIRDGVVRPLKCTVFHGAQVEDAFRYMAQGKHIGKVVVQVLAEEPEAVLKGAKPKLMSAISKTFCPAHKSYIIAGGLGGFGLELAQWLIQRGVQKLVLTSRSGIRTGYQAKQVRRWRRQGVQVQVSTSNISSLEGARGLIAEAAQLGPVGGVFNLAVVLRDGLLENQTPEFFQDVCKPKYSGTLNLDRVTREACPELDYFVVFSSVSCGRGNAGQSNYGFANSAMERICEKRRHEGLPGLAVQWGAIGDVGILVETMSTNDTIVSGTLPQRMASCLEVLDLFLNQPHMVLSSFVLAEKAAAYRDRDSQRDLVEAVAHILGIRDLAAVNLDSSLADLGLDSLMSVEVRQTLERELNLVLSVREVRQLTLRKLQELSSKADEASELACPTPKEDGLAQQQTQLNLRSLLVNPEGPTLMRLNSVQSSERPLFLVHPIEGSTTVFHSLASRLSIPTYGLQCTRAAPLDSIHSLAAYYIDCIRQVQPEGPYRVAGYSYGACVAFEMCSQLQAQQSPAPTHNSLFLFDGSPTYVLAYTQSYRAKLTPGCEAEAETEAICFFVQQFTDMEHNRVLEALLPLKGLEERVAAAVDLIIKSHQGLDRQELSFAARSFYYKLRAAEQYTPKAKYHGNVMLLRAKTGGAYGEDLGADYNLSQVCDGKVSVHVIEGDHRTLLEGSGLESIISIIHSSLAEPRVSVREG

`Cc1nccc2cc(-c3ccc(OC4CCN(C(=O)NCC(C)C)CC4)cc3)ccc12` [Example 580, N-Isobutyl-4-[4-(1-methyl-6-isoquinolyl)phenoxy]piperidine-1-carboxamide] showed a melting point of 157 °C. Further, the IC50 in series [1] (setting [2]) is 1 to 99 nM.

In turn, `CCCNC(=O)N1CCC(Oc2ccc(-c3ccc4nccn4c3Cl)cc2)CC1` [Example 566, 4-[4-(5-Chloroimidazo[1,2-a]pyridin-6-yl)phenoxy]-N-propyl-piperidine-1-carboxamide] registered a melting point of 184 °C. In series [1] (setting [2]), the IC50 lay within 1 to 99 nM.

Consider `CCNC(=O)N1CCC(Oc2ccc(-c3ccc4nccn4c3Cl)cc2)CC1` [Example 564, 4-[4-(5-Chloroimidazo[1,2-a]pyridin-6-yl)phenoxy]-N-ethyl-piperidine-1-carboxamide], for which the melting point lay within 189 to 193 °C. In addition, the IC50 in series [1] (setting [2]) is 1000 to 10000 nM.

`Cc1nccc2cc(-c3ccc(OC4CCN(C(N)=O)CC4)cc3)ccc12` [Example 581, 4-[4-(1-Methyl-6-isoquinolyl)phenoxy]piperidine-1-carboxamide] gave a melting point of 232 °C. The IC50 in series [1] (setting [2]) is 1 to 99 nM.

In turn, `Cc1c(-c2ccc(OC3CCN(C(=O)NCC(C)C)CC3)cc2)cnc2ccccc12` [Example 590, N-Isobutyl-4-[4-(4-methyl-3-quinolyl)phenoxy]piperidine-1-carboxamide] returned a melting point of 153 °C. Also, the IC50 in series [1] (setting [2]) was in the range of 1 to 99 nM.

`CCONC(=O)N1CCC(Oc2ccc(-c3ccc4c(C)nccc4c3)cc2)CC1` [Example 586, N-Ethoxy-4-[4-(1-methyl-6-isoquinolyl)phenoxy]piperidine-1-carboxamide] displayed a melting point of 208 °C. In series [1] (setting [2]), the IC50 was 1000 to 10000 nM.

In turn, `CC(C)CONC(=O)N1CCC(Oc2ccc(-c3ccc4nccn4c3Cl)cc2)CC1` [Example 571, 4-[4-(5-Chloroimidazo[1,2-a]pyridin-6-yl)phenoxy]-N-isobutoxy-piperidine-1-carboxamide] yielded a melting point of 157 °C. Also, the IC50 in series [1] (setting [2]) is 1000 to 10000 nM.

The compound `CC(C)C(=O)N1CC(Oc2ccc(-c3cnc4ccccc4c3)cc2)C1` [Example 339, 2-Methyl-1-(3-(4-(quinolin-3-yl)phenoxy)azetidin-1-yl)propan-1-one] displayed a melting point of 162 °C. The IC50 in series [1] (setting [3]) is 1000 to 10000 nM.

`CC(C)ONC(=O)N1CCC(Oc2ccc(-c3ccc4nccn4c3Cl)cc2)CC1` [Example 569, 4-[4-(5-Chloroimidazo[1,2-a]pyridin-6-yl)phenoxy]-N-isopropoxy-piperidine-1-carboxamide] had a melting point of 175 °C. For the same compound, in series [1] (setting [2]), the IC50 is 100 to 999 nM.

With `O=C(NO)N1CCC(Oc2ccc(-c3ccc4nccn4c3Cl)cc2)CC1` [Example 575, 4-[4-(5-Chloroimidazo[1,2-a]pyridin-6-yl)phenoxy]piperidine-1-carbohydroxamic acid], the melting point turned out to be 232 °C. Besides, in series [1] (setting [2]), the IC50 was 1 to 99 nM.

Consider `Cc1c(-c2ccc(OC3CCN(C(=O)NOC(C)C)CC3)cc2)cnc2ccccc12` [Example 588, N-Isopropoxy-4-[4-(4-methyl-3-quinolyl)phenoxy]piperidine-1-carboxamide], for which the melting point worked out at 80 °C. Besides, the IC50 in series [1] (setting [2]) was 1 to 99 nM.

As for `COCCNC(=O)N1CCC(Oc2ccc(-c3ccc4nccn4c3Cl)cc2)CC1` [Example 567, 4-[4-(5-Chloroimidazo[1,2-a]pyridin-6-yl)phenoxy]-N-(2-methoxyethyl)-piperidine-1-carboxamide], the melting point was 135 to 138 °C. Further, the IC50 in series [1] (setting [2]) was 100 to 999 nM.

Consider `O=C(NCC1CC1)N1CCC(Oc2ccc(-c3ccc4nccn4c3Cl)cc2)CC1` [Example 568, 4-[4-(5-Chloroimidazo[1,2-a]pyridin-6-yl)phenoxy]-N-(cyclopropylmethyl)-piperidine-1-carboxamide], for which the melting point lay within 183 to 185 °C. Further, the IC50 in series [1] (setting [2]) lay within 1000 to 10000 nM.

The compound `CCC(=O)N1CCC(Oc2ncc(-c3cnc4ccccc4c3)cn2)CC1` [Example 143, 1-[4-(5-Quinolin-3-yl-pyrimidin-2-yloxy)-piperidin-1-yl]-propan-1-one] showed a melting point of 162 to 166 °C. Further, the IC50 in series [1] (setting [3]) was 1000 to 10000 nM.

With `Cc1nccc2cc(-c3ccc(OC4CCN(C(=O)NO)CC4)cc3)ccc12` [Example 585, 4-[4-(1-Methyl-6-isoquinolyl)phenoxy]piperidine-1-carbohydroxamic acid], the melting point stood at 185 °C. The IC50 in series [1] (setting [2]) lay in the range of 100 to 999 nM.

Compound `CCC(=O)N1CCC(Oc2ccc(-c3cnc4ccccc4c3)cc2Cl)CC1` [Example 191, 1-[4-(2-Chloro-4-quinolin-3-yl-phenoxy)-piperidin-1-yl]-propan-1-one] yielded a melting point of 183 to 185 °C. Moreover, the IC50 in series [1] (setting [3]) lay within 1000 to 10000 nM.

Turning to `CCC(=O)N1CC(Oc2ccc(-c3cnc4ccccc4c3)cc2)C1` [Example 338, 1-(3-(4-(Quinolin-3-yl)phenoxy)azetidin-1-yl)propan-1-one], the melting point amounted to 172 °C. In addition, the IC50 in series [1] (setting [3]) lay in the range of 100 to 999 nM.

With `CC(C)CCNC(=O)N1CCC(Oc2ccc(-c3ccc4nccn4c3Cl)cc2)CC1` [Example 572, 4-[4-(5-Chloroimidazo[1,2-a]pyridin-6-yl)phenoxy]-N-isopentyl-piperidine-1-carboxamide], the melting point came out at 185 °C. The IC50 in series [1] (setting [2]) was in the range of 1000 to 10000 nM.

The compound `CCCNC(=O)N1CCC(Oc2ccc(-c3cnc4ccccc4c3C)cc2)CC1` [Example 591, 4-[4-(4-Methyl-3-quinolyl)phenoxy]-N-propyl-piperidine-1-carboxamide] returned a melting point of 171 °C. The IC50 in series [1] (setting [2]) fell in the range of 1 to 99 nM.

In turn, `CC(C)NC(=O)N1CCC(Oc2ccc(-c3ccc4nccn4c3Cl)cc2)CC1` [Example 570, 4-[4-(5-Chloroimidazo[1,2-a]pyridin-6-yl)phenoxy]-N-isopropyl-piperidine-1-carboxamide] gave a melting point of 220 °C. Also, the IC50 in series [1] (setting [2]) fell in the range of 1 to 99 nM.

Turning to `CC(C)CC(=O)N1CC(Oc2ccc(-c3cnc4ccccc4c3)cc2)C1` [Example 341, 3-Methyl-1-(3-(4-(quinolin-3-yl)phenoxy)azetidin-1-yl)butan-1-one], the melting point came out at 201 °C. Further, the IC50 in series [1] (setting [3]) lay within 1000 to 10000 nM.

The compound `CCCONC(=O)N1CCC(Oc2ccc(-c3ccc4cccnc4c3C)cc2)CC1` [Example 574, 4-[4-(8-Methyl-7-quinolyl)phenoxy]-N-propoxy-piperidine-1-carboxamide] gave a melting point of 75 °C. For the same compound, in series [1] (setting [2]), the IC50 fell in the range of 1 to 99 nM.

`CCONC(=O)N1CCC(Oc2ccc(-c3cnc4ccccc4c3C)cc2)CC1` [Example 587, N-Ethoxy-4-[4-(4-methyl-3-quinolyl)phenoxy]piperidine-1-carboxamide] had a melting point of 152 °C. In addition, the IC50 in series [1] (setting [2]) is 1 to 99 nM.

Take `CCCONC(=O)N1CCC(Oc2ccc(-c3cnc4ccccc4c3C)cc2)CC1` [Example 589, 4-[4-(4-Methyl-3-quinolyl)phenoxy]-N-propoxy-piperidine-1-carboxamide]: the melting point worked out at 75 °C. Further, the IC50 in series [1] (setting [2]) was 1 to 99 nM.

As for `CCCONC(=O)N1CCC(Oc2ccc(-c3ccc4c(C)nccc4c3)cc2)CC1` [Example 584, 4-[4-(1-Methyl-6-isoquinolyl)phenoxy]-N-propoxypiperidine-1-carboxamide], the melting point was determined as 165 °C. Moreover, the IC50 in series [1] (setting [2]) is 1 to 99 nM.

The compound `CC(C)CNC(=O)N1CCC(Oc2ccc(-c3ccc4nccn4c3Cl)cc2)CC1` [Example 565, 4-[4-(5-Chloroimidazo[1,2-a]pyridin-6-yl)phenoxy]-N-isobutyl-piperidine-1-carboxamide] came in with a melting point of 201 °C. For the same compound, the IC50 in series [1] (setting [2]) lay within 100 to 999 nM.
